Peptide text beside a SMILES is read from it.
Key:
[1] = tested on: 8H5 binding to H5N1 virus Chicken/HongKong/YU22/2002; parameters: species or system H5N1 avian influenza virus
[2] = tested on: 8H5 binding to H5N1 virus Shenzhen/406H/2006; parameters: species or system H5N1 avian influenza virus
[3] = tested on: chicken serum antibody against H5N1 avian influenza virus; format: binding
8H5 mAb [4] = format: binding, murine
8H5 mAb [5] = format: binding, murine; conditions: read-out: Kd (dissociation constant for 8H5)

| SMILES | Blocking Dose Yu22: amount of peptide that blocks binding of 8H5 to the virus by 50% [1] | Blocking Dose SZ/406H: amount of peptide that blocks binding of 8H5 to the virus by 50% [2] | reactivity of the ELISA produced with V-1b fused to HBcAg with chicken serum samples [3] | 8H5 titer (Tod1.5): phage dilution yielding an OD value of 1.5 (8H5 mAb [4]) | Kd (8H5 mAb [5]) |
| --- | --- | --- | --- | --- | --- |
| CC[C@H](C)[C@H](NC(=O)[C@@H](NC(=O)[C@H](CC(C)C)NC(=O)[C@@H]1CCCN1C(=O)[C@@H](NC(=O)[C@@H](N)CC(=O)O)[C@@H](C)O)[C@@H](C)O)C(=O)N[C@@H](C)C(=O)NCC(=O)N[C@@H](CC(C)C)C(=O)N[C@@H](CCCCN)C(=O)N[C@@H](CC(C)C)C(=O)N[C@H](C(=O)O)C(C)C [II-1c] (H-DTPLTIAGLKLV-OH; N-terminus and C-terminus assumed) | 8.90 µg | 2.38 µg |  |  |  |
| CC(C)C[C@H](NC(=O)[C@H](C)NC(=O)[C@H](CCC(N)=O)NC(=O)[C@H](CCCCN)NC(=O)[C@@H](NC(=O)[C@H](CC(C)C)NC(=O)[C@H](CCC(=O)O)NC(=O)[C@@H](NC(=O)[C@@H](N)CC(=O)O)[C@@H](C)O)[C@@H](C)O)C(=O)N[C@@H](CCCNC(=N)N)C(=O)N[C@@H](CC(C)C)C(=O)N[C@H](C(=O)O)C(C)C [III-2a] (H-DTELTKQALRLV-OH; N-terminus and C-terminus assumed) | 15.19 µg | 6.10 µg |  |  |  |
| CC[C@H](C)[C@H](NC(=O)[C@@H](NC(=O)[C@H](CC(C)C)NC(=O)[C@H](CCC(=O)O)NC(=O)[C@@H](NC(=O)[C@@H](N)CCC(=O)O)[C@@H](C)O)[C@@H](C)O)C(=O)N[C@@H](C)C(=O)N[C@@H](C)C(=O)N[C@@H](CC(C)C)C(=O)N[C@@H](CCCCN)C(=O)N[C@@H](Cc1ccc(O)cc1)C(=O)N[C@H](C(=O)O)C(C)C [IV-1b] (H-ETELTIAALKYV-OH; N-terminus and C-terminus assumed) | >50 µg | >50 µg |  |  |  |
| CC[C@H](C)[C@H](NC(=O)[C@@H](NC(=O)[C@H](CC(C)C)NC(=O)[C@@H]1CCCN1C(=O)[C@@H](NC(=O)[C@@H](N)CCC(=O)O)[C@@H](C)O)[C@@H](C)O)C(=O)N[C@@H](C)C(=O)NCC(=O)N[C@@H](CC(C)C)C(=O)N[C@@H](CCCCN)C(=O)N[C@@H](CC(C)C)C(=O)N[C@@H](CCCCN)C(=O)O [V-1b] (H-ETPLTIAGLKLK-OH; N-terminus and C-terminus assumed) | 5.70 µg | 2.31 µg | only the H5N1 avian influenza reactive samples were also 8H5 reactive |  |  |
| CC(C)C[C@H](NC(=O)[C@H](C)NC(=O)[C@H](C)NC(=O)[C@@H](NC(=O)[C@@H](NC(=O)[C@H](CC(C)C)NC(=O)[C@@H]1CCCN1C(=O)[C@@H](NC(=O)[C@@H](N)CC(=O)O)[C@@H](C)O)[C@@H](C)O)[C@@H](C)O)C(=O)N[C@@H](CCCNC(=N)N)C(=O)N[C@@H](CC(C)C)C(=O)N[C@H](C(=O)O)C(C)C [p125] (H-DTPLTTAALRLV-OH; N-terminus and C-terminus assumed) | 18.34 µg | 11.16 µg |  | 2.96 | 0.824 µM |

Source: article PMC3166295 (PLoS ONE, 2011)
